Assays:
[1] = system: human neutrophils, monocytes, B-cells, and monocyte-derived dendritic cells; test: Binding of soluble β-glucan to immune cells, flow cytometry with glucan specific Ab BFD IV; assay type: cell-based; details: for binding to immune cells: human neutrophils, monocytes, monocyte-derived dendritic cells
Protocol: Monocyte-derived dendritic cells (MoDCs) were prepared from blood obtained from healthy volunteers as described in Peters et al. (Advances in Experimental Medicine and Biology; 329:275-280; 1993). At day 7, the MoDCs were resuspended in RPMI 1640 supplemented with 10% human serum (Sigma-Aldrich, St. Louis, Mo.). PBMCs were obtained from healthy volunteers and similarly resuspended in RPMI 1640 supplemented with 10% human serum. The MoDCs and PBMCs were treated with vehicle alone or with IMPRIME (Biothera, Eagan, Minn.) at 100 μg/mL, 200 μg/mL, or 400 μg/mL for two hours. Binding of IMPRIME was assessed by flow cytometric analysis with a glucan specific Ab BFD IV (U.S. Pat. No. 6,084,092).

B cells (CD19+) in PBMCs [2] = test: Modulation of TLR 7/8 agonist CL097-induced B cell proliferation (CFSE dilution, FACS); assay type: cell-based; details: 2 μM CL097 with 50 μg/mL IMPRIME PGG, five days, 10% human serum
Protocol: (§1) TLR activation of B cells induces cellular proliferation that can be measured by a reduction in the staining intensity of the intracellular dye, carboxyfluorescein succinimidyl ester (CFSE, Invitrogen, Life Technologies Corp., Carlsbad, Calif.). The principle behind this technique is that as a cell divides the CFSE dye is diluted in half between the daughter cells after each division.
(§2) PBMCs obtained from healthy volunteers were treated with 2 μM CL097 (InvivoGen, San Diego, Calif.) in the presence or absence of 50 μg/mL IMPRIME PGG (Biothera, Eagan, Minn.) and cultured over five days in media containing 10% fresh human serum (Sigma-Aldrich, St. Louis, Mo.). The cells were stained with an anti-CD19 antibody (BioLegend, Inc., San Diego, Calif.) to identify the B cell subset in the PBMC mixture and intensity of CFSE staining was measured my FACS analysis (BD Biosciences, San Jose, Calif.).

B cells (CD19+) in PBMCs [3] = test: Modulation of TLR 9 agonist CpG 2006-induced B cell proliferation (CFSE dilution, FACS); assay type: cell-based; details: 100 nM CpG 2006 with 50 μg/mL IMPRIME PGG, five days, 10% human serum
Protocol: as §1
as §2, with “100 nM CpG 2006” for “2 μM CL097”

[4] = system: monocytes (CD14+) in PBMCs; test: Modulation of TLR 4 agonist LPS-induced co-stimulatory marker CD40 expression by monocytes (FACS); assay type: cell-based, human
Protocol: PBMCs obtained from healthy volunteers were treated with 25 ng/mL LPS (InvivoGen, San Diego, Calif.) either concurrently with noted doses of IMPRIME PGG (Biothera, Eagan, Minn.) or after cells were pretreated overnight with IMPRIME PGG. The cells were cultured over five days in media containing 10% fresh human serum and then stained with an anti-CD14 antibody (BioLegend, Inc., San Diego, Calif.) to identify the monocyte subset in the PBMC mixture and an anti-CD40 antibody (BioLegend, Inc., San Diego, Calif.) to evaluate CD40 expression by FACS analysis (BD Biosciences, San Jose, Calif.).

[5] = system: systemic pro-inflammatory cytokines; test: Induction of systemic pro-inflammatory cytokines

β(1,6)-[poly-1,3)-D-glucopyranosyl]-poly-β(1,3)-D-glucopyranose [IMPRIME PGG]
binding to immune cells [1]: can bind
receptors through which immune cell subsets are bound ([1]; neutrophils and monocytes): through complement binding receptors (CR2 on B-cells; CR3 on neutrophils and monocytes), not a TLR
B cell proliferation compared to PBMCs treated with only the TLR agonist (B cells (CD19+) in PBMCs [2]): increases B cell proliferation
B cell proliferation compared to PBMCs treated with only the TLR agonist (B cells (CD19+) in PBMCs [3]): increases B cell proliferation
CD40 expression effect with pre-incubation ([4]; PBMCs pre-incubated overnight with IMPRIME PGG before 25 ng/mL LPS): magnified
CD40 expression compared to treating the PBMCs with only the TLR agonist ([4]; PBMCs, 25 ng/mL LPS concurrently with IMPRIME PGG, five days): an increase in CD40 expression
induction of systemic pro-inflammatory cytokines [5]: do not appear to induce systemic pro-inflammatory cytokines

laminarin [reference compound]
binding to immune cells [1]: can bind

— patent US10166289B2, “Compositions including beta-glucans and method of use” (BIOTHERA, INC., priority 2011, dated 2019)
